Experimental data reported in US10849322B2, “Use of hibiscus acid and derivatives thereof as antimicrobials against antibiotic-resistant and non-antibiotic-resistant microorganisms” (UNIVERSIDAD AUTONOMA DEL ESTADO DE HIDALGO, priority 2015, dated 2020).

Assays:
Shigella flexneri = test: Disc diffusion, zones of inhibition in culture medium; assay type: cell-based; details: H = Shigella flexneri, average of four repetitions
Experimental: (§1) […]. Select mutants resistant to the antibiotic rifampicin (R+) to eliminate the interference of the native microbial flora of Hibiscus acid and derivatives (Castro-Rosas and Escartín, 2000). Maintain the R+ strains at 4-7° C. on blood-based agar (ABS, Merck®, Germany) with biweekly transfers, activating tripticasein soy broth (CST, Bioxon®, Mexico) with incubation at 35° C./24 h.
(§2) Prepare cultures of each one of the R+ study bacteria in tubes of 13×100 mm containing 3 ml of Tripticasein Soy Broth (TSB) incubating at 35° C. for 24 hours. Subsequently, centrifuge the cultures at 3500 rpm for 20 minutes. Then discard the supernatant and resuspend the cell pack by adding 3 ml of sterile isotonic saline solution (ISS) and agitate in vortex for 10 seconds. Repeat the previous procedure two more times. Subsequently, dilute each culture of the washed strains in a decimal proportion with ISS.
(§3) From the dry fractions (collections) prepare aqueous solutions using a solution of Polysorbate 80:water that was previously prepared in a ratio of 20:80. To this solution of polysorbate 80:water, add each dry fraction or chromatographic collection separately in a 1:9 ratio, in clean jars.
(§4) Separately, place 100 μL of the first dilution of the washed and diluted cultures on boxes of Agar Soya Tripticasa (AST) supplemented with 100 mg/L of the antibiotic rifampin; distribute the inoculum over the entire surface of the agar using the surface extension technique. Place on the inoculated boxes, separately, filter paper discs of a size of 0.5 cm and on the disks place aliquots of 10 μL of the solution of the chromatographic fractions. Perform four repetitions for each treatment. After the aliquots of the fractions or collections are absorbed by the agar, incubate the culture boxes at 35° C. for 24 hours.

Salmonella choleraesuis = test: as above; assay type: cell-based; details: column F, average of four repetitions
Experimental: as §1, §2, §3, §4

Staphylococcus aureus = test: as above; assay type: cell-based; details: K = Staphylococcus aureus, average of four repetitions
Experimental: as §1, §2, §3, §4

Pseudomonas aeruginosa = test: as above; assay type: cell-based; details: column L, average of four repetitions
Experimental: as §1, §2, §3, §4

V. cholerae O1 = test: as above; assay type: cell-based; details: M = V. cholerae O1, average of four repetitions
Experimental: as §1, §2, §3, §4

Shigella sonnei = test: as above; assay type: cell-based; details: G = Shigella sonnei, average of four repetitions
Experimental: as §1, §2, §3, §4

[1] = system: Salmonella Typhimurium R+; test: as above; assay type: cell-based; details: E = Salmonella Typhimurium R+ (resistant to 14 antibiotics), average of four repetitions
Experimental: as §1, §2, §3, §4

Listeria monocytogenes = test: as above; assay type: cell-based; details: I = Listeria monocytogenes, average of four repetitions
Experimental: as §1, §2, §3, §4

L. monocytogenes scott A = test: as above; assay type: cell-based, Listeria monocytogenes; details: J = L. monocytogenes scott A, average of four repetitions
Experimental: as §1, §2, §3, §4

E coli O157H7 = test: as above; assay type: cell-based, Escherichia coli; details: A = E coli O157H7, average of four repetitions
Experimental: as §1, §2, §3, §4

E. coli enteroinvasive = test: as above; assay type: cell-based, Escherichia coli; details: B = E. coli enteroinvasive, average of four repetitions
Experimental: as §1, §2, §3, §4

E. coli enterotoxigenic = test: as above; assay type: cell-based, Escherichia coli; details: C = E. coli enterotoxigenic, average of four repetitions
Experimental: as §1, §2, §3, §4

E. coli enteropathogenic = test: as above; assay type: cell-based, Escherichia coli; details: D = E. coli enteropathogenic, average of four repetitions
Experimental: as §1, §2, §3, §4

[2] = system: 13 different microorganisms; test: Antimicrobial effect in culture medium, whole panel; assay type: cell-based; details: against the control; all study microorganisms
Experimental: as §1, §2
From the dry fractions (collections) prepare aqueous solutions using a solution of Polysorbate 80:water that was previously prepared in a ratio of 20:80. To this solution of polysorbate 80:water, add each dry fraction or chromatographic collection separately in a 1:9 ratio, in clean jars. […]

| SMILES | Zones of inhibition (Shigella flexneri) | Zones of inhibition (Salmonella choleraesuis) | Zones of inhibition (Staphylococcus aureus) | Zones of inhibition (Pseudomonas aeruginosa) | Zones of inhibition (V. cholerae O1) | Zones of inhibition (Shigella sonnei) | Zones of inhibition [1] | Zones of inhibition (Listeria monocytogenes) | Zones of inhibition (L. monocytogenes scott A) | Zones of inhibition (E coli O157H7) | Zones of inhibition (E. coli enteroinvasive) | Zones of inhibition (E. coli enterotoxigenic) | Zones of inhibition (E. coli enteropathogenic) | antimicrobial effect (zone of inhibition, in words) [2] |
| --- | --- | --- | --- | --- | --- | --- | --- | --- | --- | --- | --- | --- | --- | --- |
| O=C1C[C@](O)(C(=O)O)[C@@H](C(=O)O)O1 [Compound 1, hibiscus acid] | 10 mm | 10 mm | 10 mm | 10 mm | 14 mm | 10 mm | 12 mm | 10 mm | 10 mm | 10 mm | 12 mm | 10 mm | 11 mm | maximum zone of inhibition |
| COC(=O)[C@@]1(O)CC(=O)O[C@@H]1C(=O)O [Compound 2, mono ester methyl of hibiscus acid] | 10 mm | 10 mm | 10 mm | 8 mm | 12 mm | 10 mm | 10 mm | 8 mm | 8 mm | 10 mm | 10 mm | 10 mm | 10 mm | – |
| COC(=O)[C@H]1OC(=O)C[C@]1(O)C(=O)OC [Compound 3, di-ester methyl of hibiscus acid] | 8 mm | 8 mm | 8 mm | 8 mm | 10 mm | 8 mm | 8 mm | 8 mm | 8 mm | 8 mm | 8 mm | 8 mm | 8 mm | – |
| CCOC(=O)[C@@]1(O)CC(=O)O[C@@H]1C(=O)O [Compound 4, mono ester ethyl of hibiscus acid] | 6 mm | 6 mm | 6 mm | 6 mm | 8 mm | 6 mm | 6 mm | 6 mm | 6 mm | 6 mm | 6 mm | 6 mm | 6 mm | – |
| CCOC(=O)[C@H]1OC(=O)C[C@]1(O)C(=O)OCC [Compound 5, di-ester ethyl of hibiscus acid] | 6 mm | 6 mm | 6 mm | 6 mm | 8 mm | 6 mm | 6 mm | 6 mm | 6 mm | 6 mm | 6 mm | 6 mm | 6 mm | – |
| CCOC(=O)C[C@](O)(C(=O)OCC)[C@@H](O)C(=O)OCC [Compound 6, tri-ethyl ester of hydroxycitric acid] | 5 mm | 5 mm | 5 mm | 5 mm | 6 mm | 5 mm | 5 mm | 5 mm | 5 mm | 5 mm | 5 mm | 5 mm | 5 mm | lowest |
